Results on 13 molecules are retold here after ChEMBL document CHEMBL3400025, “Synthesis, structural analysis and antitumor activity of novel 17α-picolyl and 17(E)-picolinylidene A-modified androstane derivatives” (Bioorg Med Chem, 2015).

The subject of test [1] is HT-29. Nature of the test: Antiproliferative activity against human HT-29 cells assessed as inhibition of cell growth after 48 hrs by MTT assay. As to conditions: HT-29, 48 h. Format: functional, cell-based.
In test [2] the test system is MCF7. Nature of the test: Antiproliferative activity against ER positive human MCF7 cells assessed as inhibition of cell growth after 48 hrs by MTT assay. The test is classed as functional, cell-based. As to conditions: MCF7, 48 h. (Tetrazolium dyes change colour on reduction, which living cells bring about.)
For test [3], the system named is MDA-MB-231. Nature of the test: Antiproliferative activity against ER negative human MDA-MB-231 cells assessed as inhibition of cell growth after 48 hrs by MTT assay. Format: functional, cell-based. As to conditions: MDA-MB-231, 48 h.
The test system of test [4] is MRC5. Nature of the test: Antiproliferative activity against human MRC5 cells assessed as inhibition of cell growth after 48 hrs by MTT assay. As to conditions: MRC5, 48 h. Format: functional, cell-based.
For test [5], the system named is A549. Nature of the test: Antiproliferative activity against human A549 cells assessed as inhibition of cell growth after 48 hrs by MTT assay. The note with it: A549, 48 h. The test is classed as functional, cell-based.
Test [6] has as its system HeLa. The test can be described thus: Antiproliferative activity against human HeLa cells assessed as inhibition of cell growth after 48 hrs by MTT assay. The test is classed as functional, cell-based.
The nature of test [7]: Antiproliferative activity against human PC3 cells assessed as inhibition of cell growth after 48 hrs by MTT assay. The test is classed as functional, cell-based. As to conditions: PC-3, 48 h.
For test [8], the system named is MCF7. Nature of the test: Cell cycle arrest in human MCF7 cells assessed as cells accumulation at subG1 phase at IC50 concentration after 48 hrs by flow cytometry (Rvb =1.83 %). Format: functional.
Test [9] relates to MCF7. Nature of the test: Induction of apoptosis in human MCF7 cells assessed as apoptotic morphological changes at IC50 concentration after 48 hrs by light microscopy. Format: functional.
For test [10], the system named is MCF7. Nature of the test: Cell cycle arrest in human MCF7 cells assessed as cells accumulation at G0/G1 phase at IC50 concentration after 48 hrs by flow cytometry (reference value: 47.55%). The test is classed as functional. (In general: A flow cytometer gives signals particle by particle.)
For test [11], the system named is MCF7. Nature of the test: Cell cycle arrest in human MCF7 cells assessed as cells accumulation at S phase at IC50 concentration after 48 hrs by flow cytometry (reference value: 29.30%). Format: functional.
Test [12] deals with MCF7. The test can be described thus: Cell cycle arrest in human MCF7 cells assessed as cells accumulation at G2/M phase at IC50 concentration after 48 hrs by flow cytometry (Rvb =21.32 %). Format: functional.

Each structure is given as a SMILES string.

Usually IC50 stands for the concentration that gives 50% inhibition. Consider `C[C@]12CC[C@H](O)CC1=CC[C@@H]1[C@@H]2CC[C@@]2(C)[C@H]1CC[C@@]2(O)Cc1ccccn1`, for which the IC50 in test [1] is 48.2 µM; in test [2], 96.1 µM; in test [3], greater than 100 µM; in test [4], greater than 100 µM; in test [5] it was greater than 100 µM; in [6] it was 75.2 µM. In [7], the IC50 amounted to 6.3 µM.

As to `C[C@]12CC[C@H](O)CC1=CC[C@@H]1[C@@H]2CC[C@]2(C)/C(=C/c3ccccn3)CC[C@@H]12`, the IC50 in test [1], in [2], in test [3], in test [4], in [5] and in [6] was greater than 100 µM in each case. Further, the concentration for half-maximal inhibition (IC50) in test [7] was greater than 100 µM.

As for `C[C@]12CCC(=O)C=C1CC[C@@H]1[C@@H]2CC[C@]2(C)/C(=C/c3ccccn3)CC[C@@H]12`, the IC50 in test [1], in [2], in [3], in test [4], in test [5] and in test [6] was greater than 100 µM throughout.

Take `C[C@]12CCC(=O)C=C1CC[C@@H]1[C@@H]2CC[C@@]2(C)[C@H]1CC[C@@]2(O)Cc1ccccn1`: the half-maximal inhibitory concentration (IC50) in [1] is greater than 100 µM; in [2] it was greater than 100 µM; in test [3], greater than 100 µM; in test [4], greater than 100 µM; in test [5] it was 57.5 µM; in [6], 57.8 µM. For the same molecule, the half-inhibitory concentration (IC50) in test [7] is greater than 100 µM.

Regarding `C[C@]12CCNC(=O)C=C1CC[C@@H]1[C@@H]2CC[C@]2(C)/C(=C/c3ccccn3)CC[C@@H]12`, the half-inhibitory concentration (IC50) in test [1] is greater than 100 µM; in [2], 32.2 µM; in test [3], 12.7 µM; in test [4], greater than 100 µM; in test [5], 19.8 µM; in [6], greater than 100 µM. Besides, the half-inhibitory concentration (IC50) in test [7] was 60.1 µM.

For `C[C@]12C/C(=C/O)C(=O)C=C1CC[C@@H]1[C@@H]2CC[C@]2(C)/C(=C/c3ccccn3)CC[C@@H]12`, the IC50 in [1], in test [2], in test [3], in test [4], in [5] and in [6] was greater than 100 µM throughout. In test [7], the 50% inhibitory concentration (IC50) was greater than 100 µM.

`C[C@]12C/C(=C/O)C(=O)C=C1CC[C@@H]1[C@@H]2CC[C@@]2(C)[C@H]1CC[C@@]2(O)Cc1ccccn1`: the IC50 was greater than 100 µM in test [1]; 34.4 µM in test [2]; 19 µM in test [3]; greater than 100 µM in [4]; greater than 100 µM in test [5]; greater than 100 µM in test [6]. The IC50 in test [7] was greater than 100 µM.

For the molecule `C[C@]12C/C(=N/O)C(=O)C=C1CC[C@@H]1[C@@H]2CC[C@@]2(C)[C@H]1CC[C@@]2(O)Cc1ccccn1`, the 50% inhibitory concentration (IC50) in test [1] is greater than 100 µM; in test [2], 51.3 µM; in test [3], greater than 100 µM; in [4], greater than 100 µM; in [5], greater than 100 µM; in test [6], greater than 100 µM. In addition, the IC50 in [7] was greater than 100 µM.

On to `C[C@]12C/C(=N\O)C(=O)c3noc(c31)C[C@@H]1[C@@H]2CC[C@@]2(C)[C@H]1CC[C@@]2(O)Cc1ccccn1`, for which the 50% inhibitory concentration (IC50) was greater than 100 µM in [1]; 25.3 µM in test [2]; 50.4 µM in [3]; greater than 100 µM in [4]; greater than 100 µM in test [5]; greater than 100 µM in [6]. Besides, the IC50 in test [7] amounted to 6.6 µM.

For `C[C@]12C/C(=N/O)C(=O)/C(=N\O)C1=CC[C@@H]1[C@@H]2CC[C@@]2(C)[C@H]1CC[C@@]2(O)Cc1ccccn1`, the IC50 in test [1] is 56 µM; in test [2], 40.1 µM; in test [3], 1.7 µM; in test [4], greater than 100 µM; in [5], 10.3 µM; in test [6] it was 81.8 µM. In addition, the half-inhibitory concentration (IC50) in test [7] was 8.7 µM. In addition, the Activity is recorded as 2.08% in [8]; 12.2% in [9]; 47.66% in [10]; 29.03% in test [11]; 21.23% in test [12].

Consider `C[C@]1(CC#N)C(C#N)=CC[C@@H]2[C@@H]1CC[C@@]1(C)[C@H]2CC[C@@]1(O)Cc1ccccn1`, for which the 50% inhibitory concentration (IC50) in test [1] was 71.8 µM; in [2], 18.2 µM; in test [3], 7.9 µM; in test [4], greater than 100 µM; in test [5], greater than 100 µM; in test [6], greater than 100 µM. Also, the IC50 in test [7] worked out at 31.5 µM. Besides, the Activity in test [8] turned out to be 1.48%; in test [10] it was 46.06%; in test [11] it was 31.34%; in test [12], 21.12%.

`COc1cccc2c1C(=O)c1c(O)c3c(c(O)c1C2=O)C[C@@](O)(C(=O)CO)C[C@@H]3O[C@H]1C[C@H](N)[C@H](O)[C@H](C)O1` [DOXORUBICIN]: the IC50 in [1] was 7.86 µM; in test [2] it was 0.12 µM; in [3], 0.75 µM; in [5] it was 0.32 µM.

As to `C[C@]12CCC(=O)C(O)=C1CC[C@@H]1[C@@H]2CC[C@]2(C)C(=O)CC[C@@H]12` [FORMESTANE], the IC50 in test [1] is greater than 100 µM; in test [2], 55.5 µM; in [3], greater than 100 µM; in test [4] it was greater than 100 µM; in test [5], greater than 100 µM; in [7] it was 48.4 µM. The Activity in test [8] worked out at 1.18%; in test [9], 11.5%; in test [10] it was 54.8%; in [11], 19.48%; in [12] it was 24.54%.
